Experimental data taken from patent US7919481B2, “Inositol pyrophosphates, and methods of use thereof” (NormOxys, Inc., priority 2002, dated 2011).
Several values for one entry are separate records, joined by “and”; a condition that tells them apart may be missing. Identical values can stand only once. Entries after “also recorded” stand apart in the source; their conditions may differ.

How the values were obtained:
[1] = test system: RBC; assay: Blood counts of orally treated mice; type: in vivo, C57BL/6 mice; settings: for RBC × 10^6/mm3: day 7, single mice, oral 27 mM for 4 days
Description: Blood from mice, having ingested kf111 or IHP in water (for 4 days) or water only was collected on day 0, 7 and 11, in order to assess any differences in the blood count (and the amount of erythropoietin in the sera) of treated and control mice. […] Erythropoietin assays in all mice sera will be reported soon.

[2] = constant concentration 22 mM, human serum/1-octanol; cited from earlier work
[3] = test system: circulating RBC; assay: Oral administration in drinking water, P50 of circulating RBC; type: in vivo, C57BL/6 mice; settings: for P50 10 d %: P50 shift on day 10, single mice
[4] = test system: RBC; assay: Blood counts of orally treated mice; type: in vivo, C57BL/6 mice; settings: day 10, single mice; oral 27 mM for 4 days
[5] = test system: human RBCs; settings: IHP encapsulated in human RBCs by continuous-flow electroporation; cited from earlier work
[6] = test system: whole blood; assay: In vitro incubation of whole blood of three species, summary statements; type: cell-based, human, mouse and pig
Experimental: (§1) As usual, pH's for the compound-solutions were adjusted to ˜7.0, osmolarities for both solutions were determined (325-373 mOsM) prior to effectors, and whole blood volumes at 1:1 ratios were incubated.

[7] = test system: circulating RBC; assay: P50 shift of circulating RBC after (intraperitoneal) injection in mice; settings: for P50 Shift % 2 h, Mean +/− SD / P50 Shift % 24 h, Mean +/− SD: 5 animals; for P50 Shift % 2 h / P50 Shift % 24 h: single animals
[8] = test system: human whole blood; assay: In vitro P50 in whole blood after incubation with effector; type: cell-based; settings: effector 60 mM
Experimental: as §1

[9] = test system: pig whole blood; assay: as above; type: cell-based; settings: effector 60 mM
Experimental: as §1

[10] = test system: mouse whole blood; assay: as above; type: cell-based; settings: effector 60 mM
Experimental: as §1

[11] = Toxicity, general statements on the biological experiments; type: in vivo
[12] = test system: porcine RBCs; assay: Intravenous injection in piglets, P50 of blood; type: in vivo, piglet; settings: iv injection of 1 g/kg body weight; maximum
Experimental: (§2) An in vivo-experiment was performed on one 8 week-old normal piglet (body weight: 17 kg). The piglet was anaesthesized with 5% Isoflurane, 0.7 L/min N2O and 2.0 L/min O2 for 20-30 minutes, when kf111 was injected, or blood was taken from the ear vein, respectively. The compound injected iv at a concentration of 27 g kf111/100 ml water (volume injected: 63 ml, pH 6.5, containing 17 g kf111=1 g/1 kg body weight) was not harmful to the animal, when injected into the piglet's ear vein over at least 10 minutes.
(§3) Iv injection of 1 g kf111/kg body weight caused a significant right shift of the P50-value (up to 20%) in porcine RBCs. An almost saturated kf111 solution, pH 6.7, was injected intravenously into two piglets (both of ˜18 kg body weight) (27 g kf111/100 ml=1.5 g/kg body weight) over 20 minutes.

[13] = test system: piglets; assay: Tolerability / lethality of iv injection in piglets; type: in vivo, piglet
Experimental: as §2, §3

[14] = test system: C57BL/6 mice; assay: Tolerability of intraperitoneal injection in mice; type: in vivo
[15] = Blood counts and serum electrolytes of iv treated piglets; type: in vivo, piglet
Description: Blood from the 2 piglets, having received kf111 (1 g/kg body weight) was collected before injection, 2 hrs after, and daily over a period of 14 days after injection, in order to assess any differences in the blood counts of treated and non treated piglets. The following conclusions for piglets having received 1 g kf111 per kg body weight can be drawn: • 1. […] Increasing numbers of reticulocytes were counted in blood samples of the injected animals taken 5-14 days after injection (up to 3.0% on day 14). • 4.
Blood was taken from the heart of the dead animals for the determination of blood counts as well as the amount of sodium, potassium and calcium in the sera. All numbers of blood cells (hematocrit, white blood cells etc.) were halved. The amount of potassium and calcium was normal, while sodium was doubled (before injection: 120-140 mmol/L; after injection: 245 mmol/L). Apparently, the large amount of sodium in kf111 (6 Na^+/molecule) caused the death of the animals. It appears that up to 1 g kf111 per kg body weight can be injected iv, (if injected slowly) without harmful effects for the animals. […] The piglets were thirsty after the treatment. *a second piglets was injected with kf111 at this concentration, after 2 piglets had died after iv injection of 1.2 g kf111 (or even more) per kg body weight. • 2. Higher amounts of kf111, injected via iv, killed the animals. • 3. A 1 g kf111 per kg body weight—injection is necessary to cause a significant right shift of the P50 value (up to 20%). • 4. […] In piglets having received 1 g of kf111/kg body weight, a tendency to the decrease in hematocrit was observed. • 6. […] The number of reticulocytes decreased slightly 24 to 72 hrs after injection (from 1.5% to 0.5%). Starting with day 3 after injection of the allosteric effector, the number of reticulocytes increased by about 3% for a period of 14 days.

[16] = test system: C57BL/6 mice; assay: Tolerability of oral administration; type: in vivo; settings: 27 mM in drinking water, 4 days
Experimental: The sodium salt of the tri-pyrophosphate derivative of IHP (kf111) was dissolved in drinking (not deionized) water at a 20 g/L-concentration (=27 mM) and offered for drinking ad libitum. As in all experiments performed before, pH was adjusted to ˜7.0.
Twelve C57BL/6 mice drank kf111 over 4 days ([…]). Three control mice drank either pure water, or a solution of IHP (inositol hexaphosphate) at the same concentration and pH as kf111 (4 mice). […] Blood was collected from the tail vein of the 19 C57BL/6 mice on day 0 (before treatment started), 1, 2, 4, 6, 7, 8, 10, 11 and 12, in order to measure P50 values.

[17] = dead piglets after lethal iv dose

O=P(O)(O)O[C@H]1[C@H](OP(=O)(O)O)[C@@H](OP(=O)(O)O)[C@H](OP(=O)(O)O)[C@@H](OP(=O)(O)O)[C@H]1OP(=O)(O)O [IHP, inositol hexaphosphate, reference compound]
RBC × 10^6/mm3 [1]: 9.6 × 10^6/mm3
equiv of ammonium ions required to reach Kos(in serum) of 1 [2]: 8 equiv
P50 7 d % ([3]; P50 shift on day 7, single mice, oral 27 mM for 4 days): 3%
P50 10 d % ([3]; oral 27 mM for 4 days): 0%
shift of the ODC ([3]; oral in drinking water, same concentration as kf111): absence of shift
RBC × 10^6/mm3 [4]: 10.77 × 10^6/mm3
P50 of IHP-modified RBCs [5]: approximately 50 torr

O=P1([O-])OP(=O)([O-])O[C@H]2[C@H](O1)[C@@H]1OP(=O)([O-])OP(=O)([O-])O[C@@H]1[C@H]1OP(=O)([O-])OP(=O)([O-])O[C@H]21.[Na+].[Na+].[Na+].[Na+].[Na+].[Na+] [kf111, Hexasodium Salt of Myo-inositol 1,6:2,3:4,5-Tripyrophosphate]
lysis of RBCs ([6]; in vitro incubation with whole blood): never occurred; also recorded: no lysis of RBCs was observed
right shift in the Hb-O2 dissociation curve, all blood samples ([6]; whole blood of human, mouse and pig, 60 mM): up to 40%
RBC × 10^6/mm3 [1]: 6.60 × 10^6/mm3 and 5.73 × 10^6/mm3 and 6.35 × 10^6/mm3 and 5.64 × 10^6/mm3 and 5.45 × 10^6/mm3 and 8.76 × 10^6/mm3 and 7.70 × 10^6/mm3 and 6.54 × 10^6/mm3
number of RBC ([1]; mice having ingested the compound for 4 days): reduced significantly
number of white blood cells ([1]; treated vs control groups): no major differences
right shift of the ODC of circulating RBC, % of the basal value ([7]; after ip injection): 31%
P50 Shift % 2 h, Mean +/− SD ([7]; ip 45 mM): 11.8 +/− 1.16%
P50 Shift % 2 h ([7]; ip 45 mM): 13% (2×) and 10% and 12% and 11%
P50 Shift % 24 h, Mean +/− SD ([7]; ip 45 mM): 13.6 +/− 1.02%
P50 Shift % 24 h ([7]; ip 45 mM): 14% (2×) and 12% and 13% and 15%
P50 Shift % 2 h, Mean +/− SD ([7]; ip 60 mM): 16.9 +/− 3.48%
P50 Shift % 2 h ([7]; ip 60 mM): 12% and 14% and 17% and 21% and 20.5%
P50 Shift % 24 h, Mean +/− SD ([7]; ip 60 mM): 17.2 +/− 2.1%
P50 Shift % 24 h ([7]; ip 60 mM): 14% and 16% and 17% and 20% and 19%
P50 Shift % 2 h, Mean +/− SD ([7]; ip 120 mM): 26.0 +/− 2.28%
P50 Shift % 2 h ([7]; ip 120 mM): 28% and 29% and 24% and 26% and 23%
P50 Shift % 24 h, Mean +/− SD ([7]; ip 120 mM): 24.8 +/− 2.7%
P50 Shift % 24 h ([7]; ip 120 mM): 28% (2×) and 22% (2×) and 24%
P50 Shift % 2 h, Mean +/− SD ([7]; ip 150 mM): 27.0 +/− 1.78%
P50 Shift % 2 h ([7]; ip 150 mM): 26% (2×) and 28% and 30% and 25%
P50 Shift % 24 h, Mean +/− SD ([7]; ip 150 mM): 25.8 +/− 2.78%
P50 Shift % 24 h ([7]; ip 150 mM): 25% and 26% and 31% and 24% and 23%
P50 Increase % ([8]; 1:1): 39%
P50 mm Hg ([8]; 1:1, control 22.1): 30.8 mm Hg
P50 Increase % ([9]; 1:1): 40%
P50 mm Hg ([9]; 1:1, control 32.2): 45.2 mm Hg
P50 Increase % ([10]; 1:1): 29%
P50 mm Hg ([10]; 1:1, control 36.7): 47.4 mm Hg
toxicity ([11]; even in a concentration of 160 mM): no toxicity
toxicity / tolerability ([11]; general statement): no toxicity and excellent tolerability
right shift of the P50-value [12]: up to 20%
harmfulness of iv injection ([13]; 1 g/kg body weight, injected slowly (at least 10 min)): not harmful
outcome of iv injection of almost saturated solution ([13]; 27 g/100 ml, 1.5 g/kg planned over 20 minutes, two piglets): Both piglets died
dose that can be injected iv without harmful effects ([13]; if injected slowly): up to 1 g kf111 per kg body weight
dose received at which piglets died ([13]; iv, saturated solution): < 1.3 g/kg body weight
P50 10 d % ([3]; oral 27 mM for 4 days): 10% and 6% and 12% and 16% and 8% and 11% and 9%
right shift of P50 ([3]; oral, 20 g/L (27 mM) in drinking water over 4 days, maximum): up to 31%
tolerability in mice ([14]; concentration of (up to) 120 mM): well tolerated
tolerability in mice ([14]; ip, concentrations up to 150 mM): well tolerated
RBC × 10^6/mm3 [4]: 9.35 × 10^6/mm3 and 8.60 × 10^6/mm3 and 8.95 × 10^6/mm3 and 8.88 × 10^6/mm3 and 8.70 × 10^6/mm3 and 8.73 × 10^6/mm3 and 7.65 × 10^6/mm3 and 7.80 × 10^6/mm3
number of other cells such as white blood cells ([15]; 1 g/kg iv): no major differences
reticulocytes ([15]; 1 g/kg iv, day 14 (samples 5-14 days after injection), maximum): up to 3.0%
reticulocytes after decrease ([15]; 1 g/kg iv, first 3 days (24 to 72 hrs) after injection): 0.5%
hematocrit and number of RBC ([15]; 1 g/kg iv, first days after injection): slight decrease
increase of the number of reticulocytes ([15]; 1 g/kg iv, starting with day 3, for a period of 14 days): about 3%
amount of potassium and calcium in sera [15, 17]: normal
numbers of blood cells (hematocrit, white blood cells etc.) [15, 17]: halved
sodium in sera after injection ([15]; dead piglets, before injection 120-140 mmol/L): 245 mmol/L
harmfulness when applied orally [16]: not harmful
